Laboratory results published in patent publication US12358970B2, “Methods of exogenous drug activation of chemical-induced signaling complexes expressed in engineered cells in vitro and in vivo” (Seattle Children's Hospital, priority 2016, dated 2025).
Entries after “also recorded” stand apart in the source; their conditions may differ.

Legend:
[1] = system: IL2R-CISC expressing primary human T-cells; experiment: Selective enrichment of IL2R-CISC expressing T cells, flow cytometry of cis-linked GFP/mCherry marker; format: cell-based; conditions: for mCherry positive cells: IL2R-CISC V3 cells, by 15 days culture in the ligand, starting transduced population 64% mCherry positive
Experimental: Each architecture of IL2R-CISC (i.e. 1210, 1211, and 1233) was cis-linked together with GFP using 2A sequences, and placed under the control of an MND promoter in a lentiviral expression cassette (as schematized in FIG. 5, bottom). Lentiviral particles from each IL2R-CISC architecture were generated and used to transduce primary human T-cells.
Lentiviral particles from each IL2R-CISC architecture were generated and used to transduce primary human T-cells. CD4+ T cells were activated for 60 hours. […] Lentivirus was transduced with or without beads, using 15 μL of IL2R-CISC and 3 μL of MND-GFP control with protamine sulfate at 4 μg/mL (0.5 mL medium) in a 24-well dish. The cells were then spinoculated at 800 g for 30 minutes at 33° C. followed by the addition of 1.5 mL medium after 4 hours of incubation. […] The GFP signal was determined and the IL2R-CISC level of transduced T cells was determined.
The T cell viability was determined and the expression of GFP+ population and IL2R-CISC expression was determined by using anti-FRB antibody and a secondary APC antibody.

[2] = system: IL2R-CISC V3 expressing human CD4+ T cells; experiment: Expansion of IL2R-CISC expressing cells in culture (cell numbers); format: cell-based; conditions: for Dose inducing the most robust cell expansion / Cell expansion: 30 days
[3] = system: gene targeted CD4+ T cells expressing GFP-FOXP3 and IL2R-CISC V3; experiment: Targeted knock-in of MND promoter and CISC into FOXP3 locus, enrichment of gene targeted cells (GFP-FOXP3 flow cytometry); format: cell-based; conditions: 15 days culture; 10 nM ligand
Source text: The described targeting approach integrates a promoter and both components of an IL2R-CISC V3 into the FOXP3 locus in line with a GFP fusion to the native FOXP3 gene. This architecture is intended to allow for ligand-induced selection of cells which have undergone an accurate gene targeting event.
FIG. 26 depicts a schematic diagram showing an experimental design of targeted knock-in of MND promoter and CISC. This represents an experimental schematic of how a CRISP/Cas9 nuclease is used to induce targeted integration of the cassettes from FIG. 25 into the FOXP3 locus, followed by expansion of the gene targeted cells in the indicated IL2R-CISC ligand.
Following targeted integration into the FOXP3 locus utilizing the indicated approaches (no targeting, or RNP plus each of the cassettes described in FIG. 25), cells were cultured in the indicated conditions for 15 days, and then analyzed by flow cytometry for GFP-FOXP3 expression. […] Flow panels are representative of IL2R-CISC GFP-FOXP3 expression by cells cultured in rapamycin.
Following targeted integration into the FOXP3 locus utilizing the indicated approaches, cells were cultured in the indicated conditions for 15 days, and then analyzed by flow cytometry for GFP-FOXP3 expression.
In addition, the targeted knock-in of MND promoter and CISC was tested to enrich and/or expand gene targeted T cells. […]

[4] = system: STAT5 phosphorylation in IL2R-CISC expressing T cells; experiment: phospho-STAT5 signaling after 20 days of culture; format: cell-based, human; conditions: mock, GFP and IL2R-CISC cell types
[5] = system: Akt activation in IL2R-CISC human CD4+ T cells; experiment: Western blot for Akt activation; format: cell-based; conditions: 15 days rapamycin 1 nM, 48 h cytokine starvation, stimulation with rapamycin 100 nM for 20 minutes
Experimental: IL2R-CISC human CD4+ T cells were analyzed following 15 days of rapamycin treatment at 1 nM, following by cytokine starvation for 48 hours.

Row | SMILES | mCherry positive cells [1] | CD4+ T cell survival ([1]; IL2R-CISC V3 construct, in response to AP21967 (FIG. 15)) | Dose inducing the most robust cell expansion ([2]; 100 nM AP21967 (vs 10 nM)) | Cell expansion ([2]; AP21967 10 nM and 100 nM) | Enrichment of FOXP3 expressing (gene targeted) cells [3] | Enrichment for IL2R-CISC expression read out by cis-linked GFP marker ([1]; 1233 architecture, 4 days post transduction, 2 days in rapamycin alone (1 nM)) | Enrichment of the GFP marker ([1]; 1233 architecture, 6 days post transduction, 4 days in rapamycin) | Enrichment of GFP+ cells ([1]; 1233 architecture, 9 days post transduction, 7 days in rapamycin) | Cells expressing the 1233 IL2R-CISC enriched to % of the cell population (GFP+) ([1]; 1233 architecture, 17 days post transduction, 15 days culture in rapamycin alone (1 nM)) | Expansion of mCherry positive cell numbers ([2]; 25 days) | Dose inducing the most robust cell expansion ([2]; 1 nM rapamycin (vs 10 nM)) | Cell expansion ([2]; rapamycin 1 nM and 10 nM) | Phosphorylation of STAT5 in response to treatment [4] | Akt activation [5]
1 | CO[C@H]1[C@@H](O)[C@H](C)C[C@H](C)/C=C/C=C/C=C(\C)[C@@H](c2c[nH]c3c(C)cccc23)C[C@@H]2CC[C@@H](C)[C@@](O)(O2)C(=O)C(=O)N2CCCC[C@H]2C(=O)O[C@H]([C@H](C)C[C@@H]2CC[C@@H](O)[C@H](OC)C2)C[C@H](O)[C@H](C)/C=C(\C)[C@H]1O [AP21967, C-16-(S)-7-methylindolerapamycin] | > 93% | promotes human CD4+ T cell survival | most robust cell expansion | promotes CD4+ T cell proliferation; also recorded: significant AP21967-induced expansion | substantial enrichment of FOXP3 expressing cells |  |  |  |  |  |  |  |  | 
2 | CO[C@H]1C[C@@H]2CC[C@@H](C)[C@@](O)(O2)C(=O)C(=O)N2CCCC[C@H]2C(=O)O[C@H]([C@H](C)C[C@@H]2CC[C@@H](O)[C@H](OC)C2)CC(=O)[C@H](C)/C=C(\C)[C@@H](O)[C@@H](OC)C(=O)[C@H](C)C[C@H](C)/C=C/C=C/C=C/1C [rapamycin, (3S,6R,7E,9R,10R,12R,14S,15E,17E,19E,21S,23S,26R,27R,34aS)-9,10,12,13,14,21,22,23,24,25,26,27,32,33,34,34a-hexadecahydro-9,27-dihydroxy-3-[(1R)-2-[(1S,3R,4R)-4-hydroxy-3-methoxycyclohexyl]-1-methylethyl]-10,21-dimethoxy-6,8,12,14,20,26-hexamethyl-23,27-epoxy-3H-pyrido[2,1-c][1,4] oxaazacyclohentriacontine-1,5,11,28,29 (4H,6H,31H)-pentone] | > 93% |  |  |  | substantial enrichment of FOXP3 expressing cells | enriched for IL2R-CISC expression; also recorded: beginning to enrich for IL2R-CISC expression | further enrichment of the GFP marker for 1233 | further enrichment of the 1233 GFP+ cells | 97% | significant rapamycin-induced expansion | most robust cell expansion | significant rapamycin-induced expansion | only IL2R-CISC expressing cells respond to rapamycin with phosphorylation of STAT5 | Akt activation
